Measurements reported in patent publication US5976523A, “Method for healing compromised tissues using pyrimidine derivatives” (Mitsui Pharmaceuticals, Inc., priority 1995, dated 1999).
Where a name gives a salt, the structure may show the parent alone.

What was measured:
TMK1 cells = assay: TMK1 cell migration in Boyden's chamber; assay type: cell-based; details: 4 hours
Experimental: TMK1 cells, low-differentiating epithelial cells, were treated with trypsin. […] The culture medium in the lower well was then subjected to fixing and staining, and cells which had migrated therein were counted. Experiments were conducted concurrently in three chambers.
Each value will be presented as a mean ±S.D. and with respect to each compound, numbers of cells will be presented in the order of a) control, b) each pyrimidine compound (whose concentration will be specifically indicated), c) 10 ng/ml of EGF, and d) a mixed solution of each pyrimidine compound + EGF.

[1] = test system: CAMs (chorioallantoic membranes); assay: Angiogenesis on chorioallantoic membranes (CAM); assay type: in vivo, chick; details: for number of new blood vessels (M±SE): day 3
Experimental: For a bFGF, various assay systems assessing the angiogenesis activity of the bFGF as an index are usable. The shells of chick embryos are fenestrated centrally corresponding to the air spaces thereof, whereby the chorioallantoic membranes (CAMS) are exposed. Solutions of the bFGF and a test medicament at various concentrations were applied onto the respective CAMs. Incubation was continued. Several days later, the degrees of angiogenesis were investigated under a microscope. This method is preferably employed. […] The test medicament is therefore found to be useful for the reduction of a time required for the construction of a skin-equivalent tissue. […] Also with respect to a VEGF, its angiogenesis activity can be assayed in a similar system.
The shells of eggs on the 10th day after fertilization were fenestrated centrally corresponding to air spaces thereof, whereby CAMs (chorioallantoic membranes) were exposed. A nylon film in the form of a square of 3 mm in side was placed over the CAM, and onto the nylon film, a solution of bFGF as a growth and/or differentiation factor or the pyrimidine compound according to the present invention was dropped in an amount of 8 ul. Incubation was continued at 38° C. On the 72nd hour, the eggs were moved to a cool place controlled at 4° C. After the eggs were left over for 2 to 3 hours there, the degree of angiogenesis in each egg was investigated under a microscope. The angiogenesis was determined based on the number of radial blood vessels equal to or larger than 0.1 mm in diameter. Onto the nylon disk placed over the CAMS, 1, 10, and 100 ng/ml solutions of recombinant human bFGF (product of Genzyme Corporation) in physiological saline and 0.01 to 1 mM solutions of the individual pyrimidine compound in physiological saline were applied singly or in combination.

PDGF-A mRNAs = assay: Polysome distribution (translation) of PDGF-A mRNAs in rat SMCs; assay type: cell-based
Experimental: SMCs were prepared following the method proposed by Ross and Klebanoff in "J. Cell. […] A rat thoracic aorta was excised. After the tunica externa was peeled off, the tunica media and the tunica intima were minced into 2-3 mm^2. The minced sections were placed standstill in a 25-cm^2 flask which contained Waymouth's MB 752/1 medium containing 10% FBS and 80 ng/ml of gentamycin (product of Schering-Plough Corp.), followed by incubation at 37° C. for 2 to 3 weeks in the presence of 5% carbon dioxide gas (primary culture). The same volume of a trypsin-EDTA solution was added to the flask. After the sections were treated at 37° C. for 5 minutes to peel off cells, the cells were diluted with 10% FBS-Waymouth's MB 752/1 medium and then subcultured (second generation). Subculture was successively conducted likewise whenever the SMC became confluent. In the following experiments, the cells from the 5th generation to the 12th generation were employed. After reach in confluence of cells, the cultured SMCs were cultured for 2 days in a serum-free medium to avoid influence of serum. The SMCs were then added with thrombin (1.0 U/ml) or serotonin (5 μM), followed by incubation at 37° C. for 6 hours under which bring about induction of PDGF-A mRNAs at the maximum. To prevent dissociation of ribosomes and mRNAs, cycloheximide (100 μg/ml) was added 5 minutes before cells were collected. […] Biol. Chem.", 267, 508 ff, 1992 with slight modifications. The cells, which had been collected by the treatment with trypsin, were washed with PBS containing cycloheximide (100 μg/ml). A cell precipitate was then added with 500 μl of a high-salt lysis buffer (20 mM Tris-HCl pH 7.5, 250 mM NaCl, 5 mM MgCl2, 0.1% Noni det P-40, 0.2% DOC) for homogenization. The homogenate was centrifuged under 12,000×g at 4° C. for 10 minutes. The resulting supernatant was added with 67 μl of a heparine mix (7.4 mg/ml heparine, 1.1M NaCl, 15 mM DTT and RNasin). 200 μl of the extract were layered on 5 ml of 0.5-1.25M linear sucrose gradient (which contained 20 mM Tris-HCl pH 7.4, 10 mM NaCl, 3 mM MgCl2), followed by centrifugation under 45,000 rpm for 90 minutes in a "Hitachi […]". While monitoring the absorbance at 260 nm, ten (10) fractions were obtained. […] Subsequent to incubation at 37° C. for 1 hour, each fraction was extracted once with 1/2 volume of phenol, twice with 1/2 volume aliquots of chloroform, and once with the equal volume of chloroform, whereby proteins were removed. The water layer was added with glycogen (20 μg/ml) as a coprecipitant and then with 0.03M of sodium acetate, and RNAs were caused to precipitate with 2 volumes of ethanol. After RNAs were incubated at 65° C. for 5 minutes in a solution containing 60% of formamide, 5.9% of formaldehyde and the equal volume of MOPS buffer (10 mM MOPS pH 7.0, 4 mM NaOAc, 0.5 mM EDTA), electrophoresis was conducted across 1.2% agarose gels containing the equal volume of MOPS buffer so that RNAs were. isolated. After the gel was washed with 20 volumes of SSC, RNAs were blotted overnight to a Gene Screen Plus membrane by the capillary method. Fixing of the RNAs was conducted by exposing them for 1 minute at a distance of 10 cm from […]. Using a "QuickHyb Hybridization Solution" (product of Strategene Ltd.), hybridization was conducted following the instruction manual attached to the solution. Results of autoradiography were quantitated with reference to the NIH Image. […]

## CN1Cc2nc(N3CCNCC3)ncc2C1=O [Compound B, 2-piperazino-6-methyl-5-oxo-5,6-dihydro(7H)pyrro[3,4-d]pyrimidine maleate]
TMK1 cells; compound 1 mM + EGF 10 ng/ml
  numbers of cells counted (migrated), mean ±S.D.: 111.2±8.0
TMK1 cells; compound alone, 1 mM
  numbers of cells counted (migrated), mean ±S.D.: 7.4±3.0
[1]; bFGF (concentration not stated) + 0.01 mM compound
  number of new vessels (M±SE): 8.1±1.1
[1]; bFGF (concentration not stated) + 0.1 mM compound
  number of new vessels (M±SE): 8.5±0.8
[1]; bFGF (concentration not stated) + 1 mM compound
  number of new vessels (M±SE): 9.3±0.5
[1]; bFGF + compound
  angiogenesis ability of bFGF: synergistically enhanced
[1]; compound alone 0.01 mM
  number of new blood vessels (M±SE): 3.5±0.9
[1]; compound alone 0.1 mM
  number of new blood vessels (M±SE): 3.4±0.5
[1]; compound alone 1 mM
  number of new blood vessels (M±SE): 4.4±0.7
PDGF-A mRNAs; compound
  translation state of 1.3 kb PDGF-A mRNAs: in a translated form
PDGF-A mRNAs; compound, serum-free medium
  translation state of 1.7 kb PDGF-A mRNAs: converted into a translated form
PDGF-A mRNAs; thrombin + compound
  translation state of PDGF-A mRNAs: converted into a translated form
